Numbered stars: 1 amine (or outer) side, 2 acyl side, 3 side chain; on linkers, the order of the positions; unused ones are H or OH. Square brackets hold non-standard residues; d marks the D form. Peptide text beside a SMILES is read from it. Phe(3,4,5-F3) = N[C@@H](Cc1cc(F)c(F)c(F)c1)C(=O)O; Phe(F5) = N[C@@H](Cc1c(F)c(F)c(F)c(F)c1F)C(=O)O; X1 = O=C([C@H](Cc1c(F)c(F)cc(F)c1F)N[*:1])[*:2]; X2 = O=C([C@H](Cc1c(F)cc(F)c(F)c1F)N[*:1])[*:2]; X3 = O=C([C@H](Cc1cc(F)c(F)c(F)c1F)N[*:1])[*:2]; Phe(3,5-F2) = N[C@@H](Cc1cc(F)cc(F)c1)C(=O)O; X4 = O=C([C@H](Cc1ccc(F)c(F)c1F)N[*:1])[*:2]; X5 = O=C([C@H](Cc1cc(F)c(F)cc1F)N[*:1])[*:2]; X7 = O=C([C@H](Cc1c(F)cc(F)cc1F)N[*:1])[*:2]; Phe(2,6-F2) = N[C@@H](Cc1c(F)cccc1F)C(=O)O; X6 = O=C([C@H](Cc1cc(F)ccc1F)N[*:1])[*:2]; Phe(4-F) = N[C@@H](Cc1ccc(F)cc1)C(=O)O; Cha = N[C@@H](CC1CCCCC1)C(=O)O

Test [1] has as its target T1, Proteinase-activated receptor 1 (Homo sapiens) (UniProt P25116).
T1 sequence (whole entry): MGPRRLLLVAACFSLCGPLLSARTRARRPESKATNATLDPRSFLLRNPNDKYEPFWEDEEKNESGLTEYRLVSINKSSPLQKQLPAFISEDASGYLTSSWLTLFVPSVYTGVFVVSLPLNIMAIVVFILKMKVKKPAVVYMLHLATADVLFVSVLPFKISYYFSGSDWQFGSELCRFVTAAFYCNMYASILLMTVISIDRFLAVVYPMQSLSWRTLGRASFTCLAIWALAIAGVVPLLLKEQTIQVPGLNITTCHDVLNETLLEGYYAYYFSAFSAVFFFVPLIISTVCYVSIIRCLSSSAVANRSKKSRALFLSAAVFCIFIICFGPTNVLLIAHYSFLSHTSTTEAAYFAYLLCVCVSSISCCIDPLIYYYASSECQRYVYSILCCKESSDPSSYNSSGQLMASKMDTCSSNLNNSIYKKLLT
The test can be described thus: Activation of PAR-1 in human platelet-rich plasma assessed as induction of platelet aggregation by turbidimetric method relative to S/Phe/FLLRNP. It is filed as cell-based.

Test [2] has as its target T2, Proteinase-activated receptor 1 (Homo sapiens, UniProt P25116).
T2 sequence (P25116 whole entry): T1 sequence (whole entry)
In words: Activation of PAR-1 in human platelet-rich plasma assessed as induction of platelet aggregation by turbidimetric method.

For test [3], the species on record is Homo sapiens. The test can be described thus: Induction of platelet aggregation in human platelet-rich plasma assessed as increase in transmissivity by turbidimetric method. It is filed as functional.
The species entered for test [4] is Homo sapiens. The test can be described thus: Induction of platelet aggregation in human platelet-rich plasma assessed as decrease in turbidity by turbidimetric method. It is filed as functional.

With `CC(C)C[C@H](NC(=O)[C@H](CC(C)C)NC(=O)[C@H](Cc1c(F)cc(F)c(F)c1F)NC(=O)[C@@H](N)CO)C(=O)N[C@@H](CCCNC(=N)N)C(=O)N[C@@H](CC(N)=O)C(=O)N1CCC[C@H]1C(N)=O` (H-S[X2]LLRNP-NH2), in test [1], the Activity is 34%. Consider `CC(C)C[C@H](NC(=O)[C@H](CC(C)C)NC(=O)[C@H](Cc1c(F)c(F)c(F)c(F)c1F)NC(=O)[C@@H](N)CO)C(=O)N[C@@H](CCCNC(=N)N)C(=O)N[C@@H](CC(N)=O)C(=O)N1CCC[C@H]1C(N)=O` (H-S[Phe(F5)]LLRNP-NH2), for which the EC50 result in test [2] is “Not Active”. Further, the Activity in test [1] amounted to 0%. The like results for `CC(C)C[C@H](NC(=O)[C@H](CC(C)C)NC(=O)[C@H](Cc1c(F)c(F)cc(F)c1F)NC(=O)[C@@H](N)CO)C(=O)N[C@@H](CCCNC(=N)N)C(=O)N[C@@H](CC(N)=O)C(=O)N1CCC[C@H]1C(N)=O` (H-S[X1]LLRNP-NH2) were, in that order, “Not Active” and 0%. Turning to `CC(C)C[C@H](NC(=O)[C@H](Cc1cc(F)c(F)c(F)c1)NC(=O)[C@@H](N)CO)C(=O)N[C@@H](CC(C)C)C(=O)N[C@@H](CC(N)=O)C(=O)N1CCC[C@H]1C(N)=O` (H-S[Phe(3,4,5-F3)]LLNP-NH2), the Activity in test [1] was 16%. With H-SFLLNP-NH2, the Activity in test [1] (filed as activator) worked out at 100%. As to `CC(C)C[C@H](NC(=O)[C@H](Cc1cc(F)ccc1F)NC(=O)[C@@H](N)CO)C(=O)N[C@@H](CC(C)C)C(=O)N[C@@H](CC(N)=O)C(=O)N1CCC[C@H]1C(N)=O` (H-S[X6]LLNP-NH2), the Activity in test [1] was determined as 35%. With `CC(C)C[C@H](NC(=O)[C@H](Cc1cc(F)c(F)cc1F)NC(=O)[C@@H](N)CO)C(=O)N[C@@H](CC(C)C)C(=O)N[C@@H](CC(N)=O)C(=O)N1CCC[C@H]1C(N)=O` (H-S[X5]LLNP-NH2), the Activity in test [1] (filed as activator) came out at 180%. As to `CC(C)C[C@H](NC(=O)[C@H](Cc1c(F)c(F)c(F)c(F)c1F)NC(=O)[C@@H](N)CO)C(=O)N[C@@H](CC(C)C)C(=O)N[C@@H](CC(N)=O)C(=O)N1CCC[C@H]1C(N)=O` (H-S[Phe(F5)]LLNP-NH2), the Activity in test [1] came out at 0%. Same read-out and setting: in the case of `CC(C)C[C@H](NC(=O)[C@H](Cc1cc(F)cc(F)c1)NC(=O)[C@@H](N)CO)C(=O)N[C@@H](CC(C)C)C(=O)N[C@@H](CC(N)=O)C(=O)N1CCC[C@H]1C(N)=O` (H-S[Phe(3,5-F2)]LLNP-NH2) it was 11%; in that of `CC(C)C[C@H](NC(=O)[C@H](CC(C)C)NC(=O)[C@H](Cc1cc(F)c(F)c(F)c1F)NC(=O)[C@@H](N)CO)C(=O)N[C@@H](CCCNC(=N)N)C(=O)N[C@@H](CC(N)=O)C(=O)N1CCC[C@H]1C(N)=O` (H-S[X3]LLRNP-NH2), 6%; in that of `CC(C)C[C@H](NC(=O)[C@H](CC(C)C)NC(=O)[C@H](CC1CCCCC1)NC(=O)[C@@H](N)CO)C(=O)N[C@@H](CCCNC(=N)N)C(=O)N[C@@H](CC(N)=O)C(=O)N1CCC[C@H]1C(N)=O` (H-S[Cha]LLRNP-NH2), 3%. On the same count and under the same terms, in the case of `CC(C)C[C@H](NC(=O)[C@H](Cc1cc(F)c(F)c(F)c1F)NC(=O)[C@@H](N)CO)C(=O)N[C@@H](CC(C)C)C(=O)N[C@@H](CC(N)=O)C(=O)N1CCC[C@H]1C(N)=O` (H-S[X3]LLNP-NH2) it was 6%.

Turning to `CC(C)C[C@H](NC(=O)[C@H](Cc1c(F)cccc1F)NC(=O)[C@@H](N)CO)C(=O)N[C@@H](CC(C)C)C(=O)N[C@@H](CC(N)=O)C(=O)N1CCC[C@H]1C(N)=O` (H-S[Phe(2,6-F2)]LLNP-NH2), the Activity in test [1] was determined as 11%.

In the case of H-SFLLRNP-NH2, the Activity entry is “Dose-dependent effect” in the test listed under Homo sapiens [3], “Dose-dependent effect” in the test filed under Homo sapiens [4] and 100% in test [1] (filed as activator).

Consider `CC(C)C[C@H](NC(=O)[C@H](Cc1ccc(F)c(F)c1F)NC(=O)[C@@H](N)CO)C(=O)N[C@@H](CC(C)C)C(=O)N[C@@H](CC(N)=O)C(=O)N1CCC[C@H]1C(N)=O` (H-S[X4]LLNP-NH2), for which the Activity in test [1] (filed as activator) stood at 98%. The same measure, in the same setting: the same measure for `CC(C)C[C@H](NC(=O)[C@H](Cc1c(F)cc(F)cc1F)NC(=O)[C@@H](N)CO)C(=O)N[C@@H](CC(C)C)C(=O)N[C@@H](CC(N)=O)C(=O)N1CCC[C@H]1C(N)=O` (H-S[X7]LLNP-NH2): 49%. Turning to `CC(C)C[C@H](NC(=O)[C@H](Cc1c(F)cc(F)c(F)c1F)NC(=O)[C@@H](N)CO)C(=O)N[C@@H](CC(C)C)C(=O)N[C@@H](CC(N)=O)C(=O)N1CCC[C@H]1C(N)=O` (H-S[X2]LLNP-NH2), the Activity in test [1] was 34%. For H-SALLRNP-NH2, in test [2], the EC50 entry was “Not Active”. Moreover, the Activity in test [1] was 0%.

For `CC(C)C[C@H](NC(=O)[C@H](Cc1ccc(F)cc1)NC(=O)[C@@H](N)CO)C(=O)N[C@@H](CC(C)C)C(=O)N[C@@H](CC(N)=O)C(=O)N1CCC[C@H]1C(N)=O` (H-S[Phe(4-F)]LLNP-NH2), the Activity in test [1] (filed as activator) is 250%.

The record behind these values is ChEMBL document CHEMBL5055673, “Direct evidence of edge-to-face CH/π interaction for PAR-1 thrombin receptor activation” (Bioorg Med Chem, 2021).
